Data published in the supplement of paper PMC10307832.

What was measured:
Assay in all cases: relative viability (nuclei count vs DMSO), 5 days (fraction); higher = more cells survive
Elesclomol + Bortezomib = compound: CN(NC(=O)CC(=O)NN(C)C(=S)c1ccccc1)C(=S)c1ccccc1 [Elesclomol] + CC(C)C[C@H](NC(=O)[C@H](Cc1ccccc1)NC(=O)c1cnccn1)B(O)O [Bortezomib] (partner 0.002 µM)
How it was run: (§1)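 A single step with final 0.05% Triton X-100, 1% formaldehyde and 1 ug/ml Hoechst fixed the cells and stained nuclei 5 days after treatment. Lung cancer cell lines in 1536-well plates had been treated by pin tool the day after seeding with one drug alone or a fixed anchor-drug dose plus five library-drug doses (not always all listed) in √10 steps, and nuclei were counted on 4× images. Relative viability is the ratio of nuclei in treated wells to nuclei in vehicle wells, taken as the median of duplicate plates.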

Elesclomol + Linsitinib = compound: CN(NC(=O)CC(=O)NN(C)C(=S)c1ccccc1)C(=S)c1ccccc1 [Elesclomol] + C[C@]1(O)C[C@@H](c2nc(-c3ccc4ccc(-c5ccccc5)nc4c3)c3c(N)nccn32)C1 [Linsitinib] (partner 1 µM)
How it was run: as §1

Elesclomol + Phenformin = compound: CN(NC(=O)CC(=O)NN(C)C(=S)c1ccccc1)C(=S)c1ccccc1 [Elesclomol] + N=C(N)NC(=N)NCCc1ccccc1 [Phenformin] (partner 250 µM)
How it was run: as §1

Elesclomol + AZD7762 = compound: CN(NC(=O)CC(=O)NN(C)C(=S)c1ccccc1)C(=S)c1ccccc1 [Elesclomol] + NC(=O)Nc1cc(-c2cccc(F)c2)sc1C(=O)N[C@H]1CCCNC1 [AZD7762] (partner 0.2 µM)
How it was run: as §1

Elesclomol + Decitabine = compound: CN(NC(=O)CC(=O)NN(C)C(=S)c1ccccc1)C(=S)c1ccccc1 [Elesclomol] + Nc1ncn([C@H]2C[C@H](O)[C@@H](CO)O2)c(=O)n1 [Decitabine] (partner 2 µM)
How it was run: as §1

Cell Line	relative viability (Elesclomol + Bortezomib; first compound 0.003162 µM)	relative viability (Elesclomol + Bortezomib; first compound 0.01 µM)	relative viability (Elesclomol + Bortezomib; first compound 0.03162 µM)	relative viability (Elesclomol + Bortezomib; first compound 0.1 µM)	relative viability (Elesclomol + Linsitinib; first compound 0.003162 µM)	relative viability (Elesclomol + Linsitinib; first compound 0.01 µM)	relative viability (Elesclomol + Linsitinib; first compound 0.03162 µM)	relative viability (Elesclomol + Linsitinib; first compound 0.1 µM)	relative viability (Elesclomol + Phenformin; first compound 0.003162 µM)	relative viability (Elesclomol + Phenformin; first compound 0.01 µM)	relative viability (Elesclomol + Phenformin; first compound 0.03162 µM)	relative viability (Elesclomol + Phenformin; first compound 0.1 µM)	relative viability (Elesclomol + AZD7762; first compound 0.003162 µM)	relative viability (Elesclomol + AZD7762; first compound 0.01 µM)	relative viability (Elesclomol + AZD7762; first compound 0.03162 µM)	relative viability (Elesclomol + AZD7762; first compound 0.1 µM)	relative viability (Elesclomol + Decitabine; first compound 0.003162 µM)	relative viability (Elesclomol + Decitabine; first compound 0.01 µM)	relative viability (Elesclomol + Decitabine; first compound 0.03162 µM)	relative viability (Elesclomol + Decitabine; first compound 0.1 µM)
201T	1.09	1.07	1.08	1.05	1.08	1.01	1	1.01	0.464	0.428	0.435	0.385	0.558	0.628	0.564	0.598	0.869	0.844	0.818	0.854
A549					0.627	0.501	0.378	0.097	0.0993	0.0488	0.0406	0.0078					0.293	0.22	0.261	0.133
A-427	0.956	0.908	0.99	0.483	1.1	1.08	1.14	0.578	0.342	0.216	0.319	0.104	0.756	0.527	0.188	0.151	0.601	0.453	0.285	0.194
ABC-1	0.133	0.23	0.25	0.228	0.267	0.207	0.308	0.212	0.239	0.22	0.224	0.17	0.294	0.252	0.309	0.236	0.409	0.345	0.318	0.279
BEN	0.698	0.57	0.265	0.25	0.763	0.403	0.322	0.239	0.264	0.233	0.259	0.246	0.654	0.54	0.38	0.294	0.677	0.483	0.419	0.333
CAL-12T	1.01	0.555	0.257	0.119	0.942	0.321	0.0785	0.0465	0.456	0.159	0.153	0.0571	0.622	0.483	0.3	0.17				
COR-L23	0.809	0.625	0.579	0.252	0.985	0.511	0.32	0.244	0.367	0.187	0.163	0.053					0.439	0.347	0.282	0.163
COR-L 105	0.751	0.577	0.347	0.214	0.715	0.494	0.371	0.202	0.417	0.315	0.289	0.168					0.666	0.465	0.337	0.303
ChaGo-K-1	0.794	0.402	0.273	0.275					0.503	0.393	0.275	0.174	0.88	0.715	0.416	0.139	0.531	0.473	0.415	0.163
EKVX	0.997	0.633	0.312	0.208	0.915	0.6	0.239	0.17	0.219	0.225	0.201	0.172	0.569	0.318	0.206	0.0929	0.395	0.222	0.148	0.132
EMC-BAC-2	1.08	0.948	0.866	0.637	0.851	0.807	0.699	0.455	0.552	0.372	0.414	0.266	1.2	0.775	0.831	0.684	0.933	0.804		0.408
EPLC-272H	0.918		1.03	0.481	1.25		1.05	0.26	0.293		0.291	0.172	0.255	0.159	0.11	0.104	0.35	0.134	0.0913	0.103
H3255	0.792	0.465	0.418	0.289	1.01	0.702	0.428	0.432	0.312	0.338	0.366	0.313	0.818	0.773	0.584	0.521	0.617	0.486	0.296	0.243
HARA	1.1	1.1	1.01	0.332	1.11	0.927	0.872	0.21	0.506	0.413	0.475	0.169	0.348	0.288	0.302	0.227	0.562	0.584	0.271	0.158
HCC-15	0.998	0.905	0.662	0.42	0.882	0.735	0.61	0.38	0.452	0.438	0.335	0.231	1.15	1.3	1.13	0.632	0.623	0.478	0.343	0.206
HCC-44	0.906	0.794	0.876	0.628	0.678	0.604	0.623	0.345	0.375	0.148	0.091	0.0922	1	0.942	0.996	1	0.913	0.941	0.952	0.94
HCC-78	0.487	0.419	0.447	0.494	0.425	0.521	0.497	0.408	0.631	0.758	0.539	0.615	0.672	0.696	0.513	0.642	0.727	0.674	0.701	0.564
HCC-366	1.09	1.04	0.688	0.0134	0.689	0.663	0.622	0.0082	0.611	0.562	0.436	0.0349	0.312	0.255	0.393	0.0195	0.39	0.31	0.0994	0.0263
HCC-827	1.03	0.998	0.947	0.999	0.959	0.851	1.03	0.707	0.382	0.402	0.371	0.393	0.25	0.253	0.163	0.191	0.344	0.35	0.283	0.252

Cell Line	relative viability (Elesclomol + Bortezomib; first compound 0.003162 µM)	relative viability (Elesclomol + Bortezomib; first compound 0.01 µM)	relative viability (Elesclomol + Bortezomib; first compound 0.03162 µM)	relative viability (Elesclomol + Bortezomib; first compound 0.1 µM)	relative viability (Elesclomol + Linsitinib; first compound 0.003162 µM)	relative viability (Elesclomol + Linsitinib; first compound 0.01 µM)	relative viability (Elesclomol + Linsitinib; first compound 0.03162 µM)	relative viability (Elesclomol + Linsitinib; first compound 0.1 µM)	relative viability (Elesclomol + Phenformin; first compound 0.003162 µM)	relative viability (Elesclomol + Phenformin; first compound 0.01 µM)	relative viability (Elesclomol + Phenformin; first compound 0.03162 µM)	relative viability (Elesclomol + Phenformin; first compound 0.1 µM)	relative viability (Elesclomol + AZD7762; first compound 0.003162 µM)	relative viability (Elesclomol + AZD7762; first compound 0.01 µM)	relative viability (Elesclomol + AZD7762; first compound 0.03162 µM)	relative viability (Elesclomol + AZD7762; first compound 0.1 µM)	relative viability (Elesclomol + Decitabine; first compound 0.003162 µM)	relative viability (Elesclomol + Decitabine; first compound 0.01 µM)	relative viability (Elesclomol + Decitabine; first compound 0.03162 µM)	relative viability (Elesclomol + Decitabine; first compound 0.1 µM)
IA-LM	0.534	0.137	0.0664	0.0121	0.47	0.265	0.134	0.022												
LK-2					0.428	0.21	0.0808	0.0624	0.438	0.389	0.353	0.141		0.37	0.279	0.0458	0.288	0.314	0.276	0.113
NCI-H358					0.279	0.234	0.152	0.156	0.305	0.158	0.148	0.166	0.305	0.182	0.161	0.102	0.171	0.108	0.0885	0.0726
NCI-H520	0.481	0.248	0.2	0.0916	1.04	0.912	0.354	0.0801	0.555	0.535	0.61	0.105					0.526	0.411	0.313	0.143
NCI-H522									0.681	0.736	0.668	0.549	0.955	0.857	0.756	0.518	0.693	0.649	0.7	0.469
NCI-H661	0.635	0.288	0.209	0.182	0.55	0.242	0.169	0.145	0.272	0.305	0.25	0.193					0.58	0.468	0.296	0.239
NCI-H1395					0.857	0.347	0.716	0.26	0.45	0.364	0.296	0.27	0.438	0.431	0.226	0.202	0.754	0.532	0.318	0.249
NCI-H1650	0.229	0.206	0.165	0.16					0.315	0.211	0.173	0.133					0.306	0.219	0.16	0.0942
NCI-H1793					0.901	0.733	0.927	0.25	0.302	0.35	0.335	0.247	0.442	0.448	0.464	0.104	0.44	0.387	0.454	0.126
NCI-H1944					1.14	1.18	1.12	1.13	0.216	0.169	0.212	0.201	0.469	0.567	0.408	0.206	0.441	0.498	0.401	0.253
NCI-H2009	0.929	0.229	0.115	0.0727	1.25	0.677	0.183	0.142	0.344	0.239	0.243	0.107					0.425	0.245	0.173	0.118
NCI-H2023	0.744	0.374	0.146	0.0637	0.697	0.319	0.209	0.0484	0.349	0.217	0.145	0.0642					0.219	0.181	0.0903	0.0614
NCI-H2170									0.39	0.402	0.376	0.341	0.896	0.846	0.852	0.493	0.461	0.48	0.48	0.38
NCI-H2228	0.926	0.893	0.422	0.0364	0.694	0.541	0.365	0.0338	0.294	0.188	0.159	0.0554								
SK-LU-1	1.45	0.424	0.38	0.116	1.11	0.835	0.405	0.12	0.643	0.287	0.305	0.161					0.679	0.575	0.481	0.468
SK-MES-1					1.04	0.814	0.992	0.62	0.644	0.456	0.506	0.421					0.425	0.306	0.213	0.172
SW 900									0.521	0.337	0.178	0.0792	0.709	0.54	0.272	0.103	0.404	0.358	0.204	0.13
SW 1573	1.02	0.174	0.105	0.103	0.706	0.224	0.116	0.102	0.274	0.114	0.159	0.0405					0.173	0.111	0.0529	0.0067
UMC-11	0.802	0.495	0.491	0.352	1.02	1.05	0.672	0.615	0.312	0.343	0.328	0.31					0.674	0.582	0.276	0.359
